Data reported in patent US20040023910A1, “Use of cyr61 in the treatment and diagnosis of human uterine leiomyomas” (priority 2003, published 2004).

Experiments:
[1] = tested on: Cyr61 transcript levels in myometrial tissue; assay: Ex vivo treatment of myometrial explants with sex steroids and growth factors, Cyr61 mRNA by Northern blotting; assay type: cell-based, human
Text: (§1) Study subjects and tissue procurement Uterine leiomyomas and matched myometrial specimens were obtained according to protocols approved by the Institutional Review Boards following routine hysterectomy at the Department of Obstetrics and Gynecology, Pennsylvania Hospital. Tissue samples were provided from patients between the ages of 38 to 53 (median age=45) who were not on hormone replacement therapy nor prescribed gonadotropin releasing hormone agonists (n=38). All but one patient had experienced normal menstrual cycles prior to surgery. Tissue specimens were immediately frozen in liquid nitrogen following hysterectomies for total RNA isolation or fixed in 10% neutral-buffered formalin for in situ hybridization. Tissues for ex vivo culturing were placed in phenol-red free DMEM/Ham's F12 media (Gibco BRL, Rockville, Md.) containing 100 U/ml penicillin, […], and 250 ng/ml amphotericine B as a fungizone and transported on ice.
Northern blotting for Cyr61 and ER a Total cellular RNA was isolated from myometrial and leiomyoma tissue homogenates by guanidium isothiocynate lysis followed by phenol/chloroform extraction. Subsequently, total cellular RNA (20 μg) was subjected to electrophoresis in a 1% agarose gel containing 1 M formaldehyde. Separated RNA transcripts were transferred onto nylon membranes by […] and subsequently prehybridized at 60° C. in RapidHyb hybridization solution (Amersham, Arlington Heights, Ill.). A 0.41 kb human Cyr61 cDNA fragment was radiolabeled with [α-^32P]-dCTP (3,000 Ci/mmol) using the random-primer technique (Rediprime II, Amersham) and used as the hybridization probe. The radiolabeled probe (1×10^6 cpm/ml) was hybridized to membranes for 4 h at 60° C. Membranes were washed twice in 1×SSPE (0.15 M NaCl, […], and 0.01 M sodium phosphate, pH 7.4) and 0.1% SDS for 15 min at 25° C., followed by a final wash in 0.1×SSPE and 0.1% SDS for 5 min at 60° C. For estrogen receptor α (ERα) expression, membranes were reprobed with a 1.96 kb human ERα cDNA (1.96 kb full length coding region) that was radiolabeled with [α-^32P]-dCTP (3,000 Ci/mmol), hybridized and washed as described above. Relative levels of Cyr61 were normalized to glyceraldehyde-3-phosphate dehydrogenase (GAPDH) after reprobing membranes with a ^32P-radiolabeled oligonucleotide according to manufacturers protocol (endlabeling kit, GibcoBRL, Rockville, Md.).
Tissue treatment with sex steroids and growth factors Tissue specimens obtained as described above were immediately minced into 1-2 mm pieces using sterilized scalpels and forceps and placed in phenol-red free DMEM/Ham's F12 containing antifingal and antibiotic agents only. […]

[2] = tested on: Cyr61 in leiomyoma tissues; assay: Ex vivo treatment of leiomyoma explants with sex steroids and growth factors, Cyr61 mRNA by Northern blotting; assay type: cell-based, human; conditions: leiomyoma explants ex vivo (n=8), 10 nM E2 or 10 ng/ml bFGF, 1 h
Text: as §1
Northern blotting for Cyr61 and ER a Total cellular RNA was isolated from myometrial and leiomyoma tissue homogenates by guanidium isothiocynate lysis followed by phenol/chloroform extraction. Subsequently, total cellular RNA (20 μg) was subjected to electrophoresis in a 1% agarose gel containing 1 M formaldehyde. […]

[3] = tested on: Cyr61 in murine and human fibroblasts; conditions: Nathans et al. 1988; cited from earlier work

C[C@]12CC[C@@H]3c4ccc(O)cc4CC[C@H]3[C@@H]1CC[C@@H]2O [E2, 17β-estradiol]
increase in Cyr61 transcript levels ([1]; myometrial explants ex vivo (n=8), 1 h, 10 nM E2, 10 ng/ml bFGF or serum, normalized to GAPDH): greater than 2 fold | upregulation of Cyr61 in leiomyoma tissues [2]: neither E2 nor bFGF was able to upregulate Cyr61

C[C@]12CC[C@@H]3c4ccc(O)cc4C[C@@H](CCCCCCCCC[S+]([O-])CCCC(F)(F)C(F)(F)F)[C@H]3[C@@H]1CC[C@@H]2O (stereo partly shown) [ICI 182,780]
inhibition of E2 mediated induction of Cyr61 ([1]; myometrial explants ex vivo, combination of 10 nM E2 and 1 μM ICI 182,780, 1 h): completely inhibited

CCC(=O)[C@@]1(C)CC[C@H]2[C@@H]3CCC4=CC(=O)CCC4=C3CC[C@@]21C [R5020]
effect on Cyr61 expression ([1]; myometrial explants ex vivo, 10 nM R5020, 1 h): no effect on Cyr61 expression | synergy with E2 on Cyr61 expression ([1]; myometrial explants ex vivo, combination of 10 nM E2 and 10 nM R5020, 1 h): nor did it synergize with E2

bFGF: basic fibroblast growth factor, purchased from R & D Systems, Inc.
induction of Cyr61 [3]: induces Cyr61 | upregulation of Cyr61 in leiomyoma tissues [2]: neither E2 nor bFGF was able to upregulate Cyr61
